Experimental data from US20090234023A1, “SUBSTITUTED HYDROXYACETOPHENONE DERIVATIVES” (Riemser Arzneimittel AG, priority 2004, published 2009).
Values after ≈ are worked out from the molar mass of the structure shown. Where two headings read alike, the source gives them in different places.

Experiments:
[1] = system: human cancer cell lines NCI-460, MCF-7, NCI-ADR, UACC-62, K-562, HT-29, 786-0, OVCAR-3, PC-3; test: SRB test, all tested human cancer cell lines (FIGS. 1-6)
Protocol: (§2) The tests were carried out with the following human cancer cell lines:
(§3) The cells were cultivated in 25 ml cell culture flasks (Nunc) with 5 ml RPMI 1640 (Gibco BRL, Life Technologies) with 5% of foetal bovine serum.
(§4) The adhering cells were trypsinised (0.5 ml trypsin, Nuticell Nutrientes Cellulares). The trypsin was then inactivated by adding 5 ml 5% serum in RPMI 1640. A single cell suspension was prepared by pipetting carefully, the cells were counted, dilutions with an appropriate cell density, varying according to the cell line, were prepared and 100 μl/well were seeded in 96-well microtitre plates. The microtitre plates were pre-incubated for 24 hours at 37° C. to stabilise the cultures. The cells were incubated for 48 hours at 37° C. and 5% CO2 with 100 μl of the dilutions of the test substances (0.25; 2.5; 25 and 250 μg/ml, in three-fold). Doxirubicin (Sigma Chemical Co.) and tamoxifen (Sigma Chemical Co.) served as positive controls.
(§5) The sulforhodamine B (SRB) test for the antiproliferative activity was carried out according to the specifications of Skehan et al. (Journal of National Cancer Institute Vol. 82, pp. 1107-1118, 1990). The cells were fixed for one hour at 4° C. by protein precipitation with 50% trichloroacetic acid (TCA, Sigma Chemicals Co.) (50 μl/well, final concentration 10%)). The supernatant was discarded and the plates were washed with tap water five times. The cells were dyed for 30 minutes with 0.4% SRB in 1% acetic acid (50 μl/well) and subsequently washed four times with 1% acetic acid in order to remove the non-bound dye. The plates were dried and the bound dye was solubilised with 150 μl/well 10 mM Trizma buffer (Sigma Chemicals Co.). The optical density was determined with an automated plate reader (Molecular Devices Max Microplate Reader) at 540 nm. All determinations were conducted as threefold determination. The optical density was calculated with the Excel® program (Microsoft Office Package).

[2] = system: Candida albicans; test: Antimicrobial test (MIC), microtitre plates, TTC stain; assay type: cell-based; conditions: 48 h, 36° C.
Protocol: (§1) The inoculum for the tests was prepared by diluting the microorganisms in 0.85% NaCl, the dilution was set to level 0.5 according to McFarland and checked at 580 nm in the spectrophotometer. The cell suspensions were diluted to 10^4 UFC/ml for the application in the tests. The MIC tests were carried out according to the instructions of J. N. P. Eloff (Planta Medica Vol. 64, pp. 711-713, 1998)) in microtitre plates with 96 wells. […] The inoculum (100 μl) was placed in all wells and the plates were incubated for 48 h at a temperature of 36° C. The antimicrobial activity was detected by adding 20 μl of a 0.5% aqueous solution of TTC (tetrazolium chloride, Merck) per well. The minimal inhibition concentration (MIC) was defined as the lowest concentration of the compound that inhibited visible growth (indicated by TTC stain).

[3] = system: Rhodococcus equi; test: as above; assay type: cell-based; conditions: Rhodococcus (subgen. Prescottella) equi, 48 h, 36° C.
Protocol: as §1

[4] = system: S. falcium; test: as above; assay type: cell-based; conditions: 48 h, 36° C.
Protocol: as §1

[5] = system: Micrococcus luteus; test: as above; assay type: cell-based; conditions: 48 h, 36° C.
Protocol: as §1

[6] = system: Staphylococcus aureus; test: as above; assay type: cell-based; conditions: 48 h, 36° C.
Protocol: as §1

[7] = system: B. subtilis; test: as above; assay type: cell-based; conditions: Bacillus subtilis, 48 h, 36° C.
Protocol: as §1

[8] = system: Escherichia coli; test: as above; assay type: cell-based; conditions: 48 h, 36° C.
Protocol: as §1

[9] = system: S. epidermides; test: as above; assay type: cell-based; conditions: 48 h
Protocol: as §1

[10] = system: E. faecium; test: as above; assay type: cell-based; conditions: Enterococcus faecium, 48 h, 36° C.
Protocol: as §1

[11] = system: Salmonella choterasuis; test: as above; assay type: cell-based; conditions: Salmonella choterasuis (Tables 3, 4: Salmonella), 48 h, 36° C.
Protocol: as §1

[12] = system: E. falcium; test: as above; assay type: cell-based; conditions: 48 h, 36° C.
Protocol: as §1

[13] = system: mamma (breast) MCF-7; conditions: MCF7, 48 hours incubation
Protocol: as §2, §3, §4
The sulforhodamine B (SRB) test for the antiproliferative activity was carried out according to the specifications of Skehan et al. (Journal of National Cancer Institute Vol. 82, pp. 1107-1118, 1990). […] The optical density was determined with an automated plate reader (Molecular Devices Max Microplate Reader) at 540 nm. […] The optical density was calculated with the Excel® program (Microsoft Office Package).

[14] = system: Lung NCI-460; conditions: for ED50 (effective dosage which killed 50% of the human cancer cells): NCI460, 48 hours incubation; for cytocidal activity: NCI-460 (lung cancer cell line)
Protocol: as §2, §3, §4, §5

[15] = system: skin cancer (melanoma) UACC-62; conditions: for ED50 (effective dosage which killed 50% of the human cancer cells): UACC62, 48 hours incubation
Protocol: as §2, §3, §4, §5

[16] = system: WI38 (fibroblasts); test: Comparison test on non-pathogenic line; conditions: WI38, non-pathogenic line for comparison

SMILES	concentration at which cytostatic activity begins ([1]; against all tested cell lines) [µg/mL]	MIC [2] [µg/mL]	MIC [3] [µg/mL]	MIC [4] [µg/mL]	MIC [5] [µg/mL]	MIC [6] [µg/mL]	MIC [7] [µg/mL]	MIC [8] [µg/mL]	MIC [10] [µg/mL]	MIC [11] [µg/mL]	MIC [12] [µg/mL]	also measured
CC(=O)c1ccc(OCC=C(C)C)cc1OCC=C(C)C [2,4O, 1-[2,4-bis(3-methylbut-2-enyloxy)phenyl]ethanone]	25	500 to 1000 (≈ 1730 to 3470 µM)	500 to 1000 (≈ 1730 to 3470 µM)	500 to 1000 (≈ 1730 to 3470 µM)	500 to 1000 (≈ 1730 to 3470 µM)	500 to 1000 (≈ 1730 to 3470 µM)	500 to 1000 (≈ 1730 to 3470 µM)	500 to 1000 (≈ 1730 to 3470 µM)	500 to 1000 (≈ 1730 to 3470 µM)	500 to 1000 (≈ 1730 to 3470 µM)		concentration at which cytocidal activity begins ([1]; against all tested cell lines): 250 µg/mL; MIC [9]: 500 to 1000 µg/mL (≈ 1730 to 3470 µM)
O=C(N[C@H](CO)[C@H](O)c1ccc([N+](=O)[O-])cc1)C(Cl)Cl [Chloramphenicol, reference compound]			40 (≈ 124 µM)	120 (≈ 371 µM)	50 (≈ 155 µM)	20 (≈ 61.9 µM)	20 (≈ 61.9 µM)	40 (≈ 124 µM)	120 (≈ 371 µM)	60 (≈ 186 µM)	120 (≈ 371 µM)	MIC ([9]; S. epidermides, 36° C., read-out: MIC): 40 µg/mL (≈ 124 µM)
CC(=O)c1ccccc1OCC=C(C)C [Compound L1, 1-[2-(3-methylbut-2-enyloxy)phenyl]ethanone]		60 (≈ 294 µM)	> 1000		250 to 500 (≈ 1220 to 2450 µM)	500 (≈ 2450 µM)	500 to 1000 (≈ 2450 to 4900 µM)	> 1000		250 (≈ 1220 µM)	250 (≈ 1220 µM)	ED50 (effective dosage which killed 50% of the human cancer cells) [13]: 25.0 µg/mL; ED50 (effective dosage which killed 50% of the human cancer cells) [14]: 25.0 µg/mL; cytocidal activity [14]: cytocidal activity; cytostatic activity (inhibition of cell growth) ([1]; against all tested cell lines): cytostatic activity; ED50 (effective dosage which killed 50% of the human cancer cells) [15]: 45.0 µg/mL; cytocidal activity ([15]; UACC-62): cytocidal activity
CC(=O)c1cc(CC=C(C)C)ccc1O [Compound L2]		50 (≈ 245 µM)	> 1000		500 to 1000 (≈ 2450 to 4900 µM)	> 1000	500 to 1000 (≈ 2450 to 4900 µM)	50 (≈ 245 µM)		500 to 1000 (≈ 2450 to 4900 µM)	500 to 1000 (≈ 2450 to 4900 µM)	activity against fibroblasts [16]: not active against fibroblasts; activity against fibroblasts ([16]; listed as 1-[2-Hydroxy-5-(3-methylbut-2-enyl)ethanone): without damaging the fibroblasts; ED50 (effective dosage which killed 50% of the human cancer cells) [13]: 6.0 µg/mL; ED50 (effective dosage which killed 50% of the human cancer cells) [14]: 9.0 µg/mL; activity on all cell lines ([1]; at concentrations ranging between 0.5 and 250 μg/ml): very strong activity; ED50 (effective dosage which killed 50% of the human cancer cells) [15]: 4.2 µg/mL
CC(=O)c1cc(CC=C(C)C)ccc1OCC=C(C)C [Compound L3, 1-[5-(3-methylbut-2-enyl)-2-(3-methylbut-2-enyloxy)phenyl]-ethanone]		900 (≈ 3300 µM)	> 1000		500 to 1000 (≈ 1840 to 3670 µM)	> 1000	> 1000	> 1000		> 1500	500 to 1000 (≈ 1840 to 3670 µM)	
C=CC(C)(C)c1cc(CC=C(C)C)cc(C(C)=O)c1O [LMK7, 1-[3-(1,1-dimethylallyl)-2-hydroxy-5-(3-methylbut-2-enyl)phenyl]-ethanone]	25											cytocidal activity [14]: did not, however, exhibit any cytocidal activity
CC(=O)c1ccc(OCC=C(C)C)cc1 [LP1, 1-[4-(3-methylbut-2-enyloxy)phenyl]ethanone]	25	> 1500	> 1500	> 1500	> 1500	> 1500	> 1500	> 1500	> 1500	120 to 250 (≈ 587 to 1220 µM)		melting point: 47 °C; concentration at which cytocidal activity begins ([1]; against all tested cell lines): 250 µg/mL; MIC [9]: 60 to 120 µg/mL (≈ 294 to 587 µM)
